Reference: patent US10738028B2, “Spiro three-membered ring, spiro five-membered ring peptide deformylase inhibitor and use thereof in antibacteria and anti-tumor” (priority 2016, dated 2020)

Tests used:
Type in all cases: cell-based
[1] = test system: HCT-116 colorectal cancer cell line; assay: CCK-8 proliferation inhibition; details: Homo sapiens, HCT-116, 72 h, concentration of 30 μM; 72 hours; CCK-8; read-out: HCT116 inhibition rate/%
Outline: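 Cells seeded at 2000 cells/well, cultured overnight at 37 °C, 5% CO2, then exposed to compound (DMSO; control 1‰ DMSO) for 72 h in McCoy's 5A with 10% newborn bovine serum. Viability read with 1:10 diluted CCK-8.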

[2] = test system: methicillin-sensitive Staphylococcus epidermidis (MSSE); assay: MIC, two-fold agar dilution (CLSI), clinical isolates
Outline: (§1)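 Samples are serially diluted two-fold in agar following CLSI guidance. Plates are then inoculated with the tested strains. The lowest inhibiting concentration is recorded as MIC.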

[3] = test system: Enterococcus faecalis (EFA); assay: as above
Outline: as §1

[4] = test system: Enterococcus faecium (EFM); assay: as above
Outline: as §1

[5] = test system: Escherichia coli (including ESBLs, non-ESBLs); assay: as above
Outline: as §1

[6] = test system: Streptococcus pneoumoniae (SPN); assay: as above
Outline: as §1

[7] = test system: methicillin-sensitive Staphylococcus aureus (MSSA); assay: as above
Outline: as §1

[8] = test system: methicillin-resistant Staphylococcus epidermidis (MRSE); assay: as above
Outline: as §1

[9] = test system: Moraxella catarrhalis (BCA); assay: as above
Outline: as §1

[10] = test system: methicillin-resistant Staphylococcus aureus (MRSA); assay: as above
Outline: as §1

CCCC[C@H](CC(=O)NO)C(=O)N1CC2(CC2)C[C@H]1C(=O)NC1CC1 [Example 50, (S)—N-cyclopropyl-5-((R)-2-(2-(hydroxyamino)-2-oxoethyl)hexanoyl)-5-azaspiro[2.4]heptane-6-carboxamide]
inhibition at 30 µM [1]: -11%
Anti-bacterial activity (MIC), strain MSSE 15-3 ([2]; clinical isolate MSSE 15-3): > 32 µg/mL
Anti-bacterial activity (MIC), strain MSSE 15-4 ([2]; clinical isolate MSSE 15-4): > 32 µg/mL
Anti-bacterial activity (MIC), strain MSSE 15-5 ([2]; clinical isolate MSSE 15-5): > 32 µg/mL
Anti-bacterial activity (MIC), strain MSSE 15-6 ([2]; clinical isolate MSSE 15-6): > 32 µg/mL
Anti-bacterial activity (MIC), strain EFA 15-1 ([3]; clinical isolate EFA 15-1): > 32 µg/mL
Anti-bacterial activity (MIC), strain EFA 15-2 ([3]; clinical isolate EFA 15-2): > 32 µg/mL
Anti-bacterial activity (MIC), strain EFA 15-3 ([3]; clinical isolate EFA 15-3): > 32 µg/mL
Anti-bacterial activity (MIC), strain EFA 15-4 ([3]; clinical isolate EFA 15-4): > 32 µg/mL
Anti-bacterial activity (MIC), strain EFA 15-5 ([3]; clinical isolate EFA 15-5): > 32 µg/mL
Anti-bacterial activity (MIC), strain EFA 15-6 ([3]; clinical isolate EFA 15-6): > 32 µg/mL
Anti-bacterial activity (MIC), strain EFA 15-9 ([3]; clinical isolate EFA 15-9): > 32 µg/mL
Anti-bacterial activity (MIC), strain EFM 15-1 ([4]; clinical isolate EFM 15-1): > 32 µg/mL
Anti-bacterial activity (MIC), strain EFM 15-2 ([4]; clinical isolate EFM 15-2): > 32 µg/mL
Anti-bacterial activity (MIC), strain EFM 15-3 ([4]; clinical isolate EFM 15-3): > 32 µg/mL
Anti-bacterial activity (MIC), strain EFM 15-4 ([4]; clinical isolate EFM 15-4): > 32 µg/mL
Anti-bacterial activity (MIC), strain EFM 15-5 ([4]; clinical isolate EFM 15-5): > 32 µg/mL
Anti-bacterial activity (MIC), strain EFM 15-6 ([4]; clinical isolate EFM 15-6): > 32 µg/mL
Anti-bacterial activity (MIC), strain ECO+ 15-1 ([5]; clinical isolate ECO+ 15-1): > 32 µg/mL
Anti-bacterial activity (MIC), strain ECO+ 15-2 ([5]; clinical isolate ECO+ 15-2): > 32 µg/mL
Anti-bacterial activity (MIC), strain ECO+ 15-3 ([5]; clinical isolate ECO+ 15-3): > 32 µg/mL
Anti-bacterial activity (MIC), strain ECO+ 15-4 ([5]; clinical isolate ECO+ 15-4): > 32 µg/mL
Anti-bacterial activity (MIC), strain ECO− 15-1 ([5]; clinical isolate ECO− 15-1): > 32 µg/mL
Anti-bacterial activity (MIC), strain ECO− 15-2 ([5]; clinical isolate ECO− 15-2): > 32 µg/mL
Anti-bacterial activity (MIC), strain ECO− 15-3 ([5]; clinical isolate ECO− 15-3): > 32 µg/mL
Anti-bacterial activity (MIC), strain ECO− 15-4 ([5]; clinical isolate ECO− 15-4): > 32 µg/mL
Anti-bacterial activity (MIC), strain SPN 16-2 ([6]; clinical isolate SPN 16-2): > 32 µg/mL
Anti-bacterial activity (MIC), strain SPN 16-4 ([6]; clinical isolate SPN 16-4): > 32 µg/mL
Anti-bacterial activity (MIC), strain MSSA 15-3 ([7]; clinical isolate MSSA 15-3): > 32 µg/mL
Anti-bacterial activity (MIC), strain MSSA 15-4 ([7]; clinical isolate MSSA 15-4): > 32 µg/mL
Anti-bacterial activity (MIC), strain MSSA 15-5 ([7]; clinical isolate MSSA 15-5): > 32 µg/mL
Anti-bacterial activity (MIC), strain MSSA 15-6 ([7]; clinical isolate MSSA 15-6): > 32 µg/mL
Anti-bacterial activity (MIC), strain MRSE 15-1 ([8]; clinical isolate MRSE 15-1): > 32 µg/mL
Anti-bacterial activity (MIC), strain MRSE 15-2 ([8]; clinical isolate MRSE 15-2): > 32 µg/mL
Anti-bacterial activity (MIC), strain MRSE 15-3 ([8]; clinical isolate MRSE 15-3): > 32 µg/mL
Anti-bacterial activity (MIC), strain MRSE 15-7 ([8]; clinical isolate MRSE 15-7): > 32 µg/mL
Anti-bacterial activity (MIC), strain BCA 14-1 ([9]; clinical isolate BCA 14-1): > 32 µg/mL
Anti-bacterial activity (MIC), strain BCA 14-4 ([9]; clinical isolate BCA 14-4): > 32 µg/mL
Anti-bacterial activity (MIC), strain BCA 14-5 ([9]; clinical isolate BCA 14-5): > 32 µg/mL
Anti-bacterial activity (MIC), strain BCA 14-6 ([9]; clinical isolate BCA 14-6): > 32 µg/mL
Anti-bacterial activity (MIC), strain BCA 14-7 ([9]; clinical isolate BCA 14-7): > 32 µg/mL
Anti-bacterial activity (MIC), strain BCA 14-8 ([9]; clinical isolate BCA 14-8): > 32 µg/mL
Anti-bacterial activity (MIC), strain BCA 14-10 ([9]; clinical isolate BCA 14-10): > 32 µg/mL
Anti-bacterial activity (MIC), strain MRSA 15-1 ([10]; clinical isolate MRSA 15-1): > 23 µg/mL
Anti-bacterial activity (MIC), strain MRSA 15-2 ([10]; clinical isolate MRSA 15-2): > 32 µg/mL
Anti-bacterial activity (MIC), strain MRSA 15-3 ([10]; clinical isolate MRSA 15-3): > 32 µg/mL
Anti-bacterial activity (MIC), strain MRSA 15-4 ([10]; clinical isolate MRSA 15-4): > 32 µg/mL
